From ChEMBL document CHEMBL1141956, “New heterocyclic analogues of 4-(2-chloro-5-methoxyanilino)quinazolines as potent and selective c-Src kinase inhibitors” (Bioorg Med Chem Lett, 2005)
Values after ≈ are worked out from the molar mass of the structure shown.

Key:
[1] = target: Proto-oncogene tyrosine-protein kinase Src (Homo sapiens, UniProt P12931); test: Inhibitory activity against c-Src kinase
A549 = test: Inhibition of A549 cell migration; format: functional, cell-based; settings: Homo sapiens
[2] = target: Vascular endothelial growth factor receptor 2 (Homo sapiens, UniProt P35968); test: Inhibitory activity against KDR
Sequence of Vascular endothelial growth factor receptor 2 (P35968 whole entry): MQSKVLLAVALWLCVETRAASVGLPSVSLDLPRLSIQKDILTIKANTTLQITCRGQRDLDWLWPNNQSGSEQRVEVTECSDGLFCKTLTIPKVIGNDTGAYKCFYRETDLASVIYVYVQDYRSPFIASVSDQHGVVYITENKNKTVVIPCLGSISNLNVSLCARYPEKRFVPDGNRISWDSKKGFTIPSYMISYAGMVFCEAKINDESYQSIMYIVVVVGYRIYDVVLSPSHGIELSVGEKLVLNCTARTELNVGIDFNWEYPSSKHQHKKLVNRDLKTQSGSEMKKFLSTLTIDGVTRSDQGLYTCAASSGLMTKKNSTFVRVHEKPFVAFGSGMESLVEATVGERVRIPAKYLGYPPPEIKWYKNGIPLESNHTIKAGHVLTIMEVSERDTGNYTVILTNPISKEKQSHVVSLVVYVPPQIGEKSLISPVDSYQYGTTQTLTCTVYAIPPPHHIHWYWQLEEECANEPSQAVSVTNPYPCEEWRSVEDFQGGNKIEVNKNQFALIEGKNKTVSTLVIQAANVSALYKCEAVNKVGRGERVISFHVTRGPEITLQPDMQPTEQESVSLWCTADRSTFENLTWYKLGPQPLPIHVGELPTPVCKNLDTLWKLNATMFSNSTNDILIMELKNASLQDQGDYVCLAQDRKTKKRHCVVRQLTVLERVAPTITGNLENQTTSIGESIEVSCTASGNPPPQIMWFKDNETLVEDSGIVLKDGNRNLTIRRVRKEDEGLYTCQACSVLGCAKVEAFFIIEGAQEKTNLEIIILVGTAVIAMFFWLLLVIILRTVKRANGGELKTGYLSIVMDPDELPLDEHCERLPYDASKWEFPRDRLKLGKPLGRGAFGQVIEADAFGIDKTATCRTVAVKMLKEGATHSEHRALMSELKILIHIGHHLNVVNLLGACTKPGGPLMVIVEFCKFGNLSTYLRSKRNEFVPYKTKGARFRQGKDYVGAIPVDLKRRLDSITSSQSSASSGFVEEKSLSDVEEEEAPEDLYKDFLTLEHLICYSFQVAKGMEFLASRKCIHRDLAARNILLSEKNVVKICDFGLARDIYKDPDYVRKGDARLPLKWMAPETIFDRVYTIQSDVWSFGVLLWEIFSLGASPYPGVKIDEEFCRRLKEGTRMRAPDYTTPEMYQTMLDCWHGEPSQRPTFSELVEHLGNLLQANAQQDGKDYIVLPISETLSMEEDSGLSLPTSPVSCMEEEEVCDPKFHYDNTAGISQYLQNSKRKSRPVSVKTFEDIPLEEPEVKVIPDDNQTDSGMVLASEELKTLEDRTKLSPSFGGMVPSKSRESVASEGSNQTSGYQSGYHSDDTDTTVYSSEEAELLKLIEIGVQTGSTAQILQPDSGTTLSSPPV

[3] = Cmax in rat administered with 2 mg/kg, po; format: ADME, organism-based; design: dose 2 mg/kg, route oral; settings: in vivo
Rattus norvegicus = test: AUC(0-6 h) in rat administered with 2 mg/kg, po; format: ADME, organism-based, Plasma; design: time < 6 hr, dose 2 mg/kg, route oral; settings: in vivo
[4] = Solubility in phosphate buffer at pH 7.4; format: physicochemical
[5] = Percent of unbound ligand in rat plasma; format: ADME, organism-based

Sequence of Proto-oncogene tyrosine-protein kinase Src (P12931 2-536 limits assumed): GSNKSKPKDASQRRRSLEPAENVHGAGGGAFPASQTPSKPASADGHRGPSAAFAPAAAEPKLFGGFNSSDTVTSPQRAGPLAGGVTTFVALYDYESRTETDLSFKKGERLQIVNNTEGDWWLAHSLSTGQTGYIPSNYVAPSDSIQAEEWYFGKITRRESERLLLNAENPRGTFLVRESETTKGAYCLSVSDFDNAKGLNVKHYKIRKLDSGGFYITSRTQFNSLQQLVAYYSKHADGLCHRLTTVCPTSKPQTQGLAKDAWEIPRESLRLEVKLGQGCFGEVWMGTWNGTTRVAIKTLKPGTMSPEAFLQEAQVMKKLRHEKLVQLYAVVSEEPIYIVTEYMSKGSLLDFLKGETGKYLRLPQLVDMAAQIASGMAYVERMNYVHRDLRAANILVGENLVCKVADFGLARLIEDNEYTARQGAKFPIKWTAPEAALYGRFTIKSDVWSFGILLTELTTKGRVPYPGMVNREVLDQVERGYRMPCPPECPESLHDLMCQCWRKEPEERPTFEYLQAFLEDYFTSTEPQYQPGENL

| IC50 [1] | IC50 (A549) | IC50 [2] | Cmax [3] | AUC (Rattus norvegicus) | solubility [4] | fraction unbound [5] | SMILES |
| --- | --- | --- | --- | --- | --- | --- | --- |
| 15 nM | 80 nM | 3600 nM | – | – | – | – | COc1ccc(Cl)c(Nc2ncnc3cc(OCCN4CCCC4)cc(OC(C)C)c23)n1 |
| < 4 nM | 90 nM | 1900 nM | – | – | – | – | COc1ccc(Cl)c(Nc2ncnc3cc(OCCCN4CCOCC4)cc(OC(C)C)c23)n1 |
| 6 nM | 140 nM | 900 nM | – | – | – | – | COc1ccc(Cl)c(Nc2ncnc3cc(OCCCN4CCCC4)cc(OC(C)C)c23)n1 |
| 15 nM | 270 nM | 15000 nM | – | – | – | – | COc1ncc(Cl)c(Nc2ncnc3cc(OCCN4CCN(C(C)=O)CC4)cc(OC(C)C)c23)n1 |
| 10 nM | 90 nM | 6300 nM | 310 nM | 0.64 uMh | 43 µM (≈ 22.1 µg/mL) | 0.08 | COc1ccc(Cl)c(Nc2ncnc3cc(OCCN4CCN(C(C)=O)CC4)cc(OC(C)C)c23)n1 |
| 35 nM | – | < 2 nM | – | – | – | – | COc1cc(Nc2ncnc3cc(OCCCN4CCOCC4)cc(OC(C)C)c23)c(Cl)cn1 |
| 7 nM | 290 nM | 30 nM | – | – | – | – | COc1cnc(Cl)c(Nc2ncnc3cc(OCCCN4CCOCC4)cc(OC4CCOCC4)c23)c1 |
| < 4 nM | 90 nM | 680 nM | – | – | – | – | COc1ccc(Cl)c(Nc2ncnc3cc(OCCCN4CCN(C)CC4)cc(OC(C)C)c23)n1 |
| 5 nM | – | 30 nM | – | – | – | – | COc1cnc(Cl)c(Nc2ncnc3cc(OCCCN4CCOCC4)cc(OC(C)C)c23)c1 |
| < 4 nM | 90 nM | 2700 nM | – | – | – | – | COc1ccc(Cl)c(Nc2ncnc3cc(OCCCN4CCN(C(C)=O)CC4)cc(OC(C)C)c23)n1 |
| 5 nM | 160 nM | 5500 nM | – | – | – | – | COc1ccc(Cl)c(Nc2ncnc3cc(OCCCN4CCOCC4)cc(OC4CCOCC4)c23)n1 |
| 20 nM | 130 nM | 2900 nM | – | – | – | – | COc1ccc(Cl)c(Nc2ncnc3cc(OCCN4CCOCC4)cc(OC(C)C)c23)n1 |
| 8 nM | 140 nM | 2800 nM | 420 nM | 0.61 uMh | – | – | COc1cnc(Cl)c(Nc2ncnc3cc(OCCN4CCN(C(C)=O)CC4)cc(OC(C)C)c23)n1 |
| 10 nM | – | 400 nM | – | – | – | – | COc1ccc(Cl)c(Nc2ncnc3cc(OCCCN4CCOCC4)cc(OC4CCOCC4)c23)c1 |
| 40 nM | – | 30 nM | – | – | – | – | COc1ccc(Cl)c(Nc2ncnc3cc(OCCCN4CCOCC4)cc(OC(C)C)c23)c1 |
| 400 nM | – | 80 nM | – | – | – | – | COc1cc(Nc2ncnc3cc(OCCCN4CCOCC4)cc(OC4CCOCC4)c23)c(Cl)cn1 |

| SMILES | IC50 [1] | IC50 (A549) | IC50 [2] | Cmax [3] | AUC (Rattus norvegicus) | solubility [4] | fraction unbound [5] |
| --- | --- | --- | --- | --- | --- | --- | --- |
| COc1ccc(Cl)c(Nc2ncnc3cc(OCCN4CCN(C)CC4)cc(OC(C)C)c23)n1 | 7 nM | 170 nM | 570 nM | – | – | – | – |
